This is an account of results in ChEMBL document CHEMBL5303573, “Mapping human microbiome drug metabolism by gut bacteria and their genes” (Nature, 2019).

Common to all, as to assay type: ADME
What all share (conditions): 2 µM

For data set [1], the target named is T1, SGNH hydrolase-type esterase domain-containing protein (Phocaeicola dorei, UniProt B6W1J1).
T1 sequence (B6W1J1 whole entry): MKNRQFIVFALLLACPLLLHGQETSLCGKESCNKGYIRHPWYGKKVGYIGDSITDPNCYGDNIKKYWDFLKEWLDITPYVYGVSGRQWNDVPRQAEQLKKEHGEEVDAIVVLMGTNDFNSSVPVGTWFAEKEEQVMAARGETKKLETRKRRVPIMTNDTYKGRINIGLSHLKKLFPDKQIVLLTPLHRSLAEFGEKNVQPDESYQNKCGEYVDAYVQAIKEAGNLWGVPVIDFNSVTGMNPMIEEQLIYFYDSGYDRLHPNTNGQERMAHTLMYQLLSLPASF
Kind of data set: (§1) The drug is tested on Bacteroides dorei strain: DSM17855 for biotransformation. The drug concentrations were measured before and after a 12-h incubation by liquid-chromatography-coupled mass spectrometry (LC–MS). Also noted: dose 2 uM.

For data set [2], the target named is T2, SGNH hydrolase-type esterase domain-containing protein (Phocaeicola dorei, UniProt B6VTE7).
T2 sequence (B6VTE7 whole entry): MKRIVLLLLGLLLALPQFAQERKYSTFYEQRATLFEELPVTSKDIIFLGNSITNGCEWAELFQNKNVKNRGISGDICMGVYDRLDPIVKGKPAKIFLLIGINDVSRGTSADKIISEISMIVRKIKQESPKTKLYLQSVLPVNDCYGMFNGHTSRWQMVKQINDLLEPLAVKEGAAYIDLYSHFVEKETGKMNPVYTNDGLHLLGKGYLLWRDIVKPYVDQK
The data set is described as §1. Set-up: dose 2 uM.

In data set [3] the target is T3, SGNH hydrolase-type esterase domain-containing protein (Phocaeicola dorei, UniProt B6W293).
T3 sequence (B6W293 whole entry): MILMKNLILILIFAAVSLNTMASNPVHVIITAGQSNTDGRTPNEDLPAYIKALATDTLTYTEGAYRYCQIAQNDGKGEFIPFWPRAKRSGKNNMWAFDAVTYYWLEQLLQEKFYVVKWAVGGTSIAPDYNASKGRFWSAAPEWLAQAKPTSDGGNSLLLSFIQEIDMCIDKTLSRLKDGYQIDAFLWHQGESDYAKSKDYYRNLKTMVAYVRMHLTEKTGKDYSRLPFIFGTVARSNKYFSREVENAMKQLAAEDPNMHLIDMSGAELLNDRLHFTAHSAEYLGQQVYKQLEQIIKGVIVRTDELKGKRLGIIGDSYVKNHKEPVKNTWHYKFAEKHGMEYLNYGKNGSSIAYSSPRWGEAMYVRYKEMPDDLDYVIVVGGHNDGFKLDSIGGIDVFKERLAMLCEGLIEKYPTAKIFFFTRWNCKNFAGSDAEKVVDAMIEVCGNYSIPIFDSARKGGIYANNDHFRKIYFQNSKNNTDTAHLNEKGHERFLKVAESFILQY
The data set is described as §1. Also noted: dose 2 uM.

Data set [4] is described as follows: The drug is tested on the gut metagenome community of MV07 with ENA study accession number: PRJEB31790 and ENA sample accession number: SAMEA5537488 for biotransformation. The drug concentrations were measured over 9 timepoints collected between 0 and 24 hours of incubation by liquid-chromatography-coupled mass spectrometry (LC–MS). Set-up: dose 2 uM, timepoint 0, 1, 2, 4, 6, 8, 12, 18, 24 hours.

The nature of data set [5]: The drug is tested on the gut metagenome community of MV16 with ENA study accession number: PRJEB31790 and ENA sample accession number: SAMEA5537497 for biotransformation. The drug concentrations were measured over 9 timepoints collected between 0 and 24 hours of incubation by liquid-chromatography-coupled mass spectrometry (LC–MS). Also noted: dose 2 uM, timepoint 0, 1, 2, 4, 6, 8, 12, 18, 24 hours.

The nature of data set [6]: The drug is tested on the gut metagenome community of MV15 with ENA study accession number: PRJEB31790 and ENA sample accession number: SAMEA5537496 for biotransformation. The drug concentrations were measured over 9 timepoints collected between 0 and 24 hours of incubation by liquid-chromatography-coupled mass spectrometry (LC–MS). Also noted: dose 2 uM, timepoint 0, 1, 2, 4, 6, 8, 12, 18, 24 hours.

Data set [7] in a line: The drug is tested on the gut metagenome community of MV14 with ENA study accession number: PRJEB31790 and ENA sample accession number: SAMEA5537495 for biotransformation. The drug concentrations were measured over 9 timepoints collected between 0 and 24 hours of incubation by liquid-chromatography-coupled mass spectrometry (LC–MS). Also noted: dose 2 uM, timepoint 0, 1, 2, 4, 6, 8, 12, 18, 24 hours.

Data set [8] in a line: The drug is tested on the gut metagenome community of MV04 with ENA study accession number: PRJEB31790 and ENA sample accession number: SAMEA5537485 for biotransformation. The drug concentrations were measured over 9 timepoints collected between 0 and 24 hours of incubation by liquid-chromatography-coupled mass spectrometry (LC–MS). Set-up: dose 2 uM, timepoint 0, 1, 2, 4, 6, 8, 12, 18, 24 hours.

The nature of data set [9]: The drug is tested on the gut metagenome community of MV06 with ENA study accession number: PRJEB31790 and ENA sample accession number: SAMEA5537487 for biotransformation. The drug concentrations were measured over 9 timepoints collected between 0 and 24 hours of incubation by liquid-chromatography-coupled mass spectrometry (LC–MS). Also noted: dose 2 uM, timepoint 0, 1, 2, 4, 6, 8, 12, 18, 24 hours.

The nature of data set [10]: The drug is tested on the gut metagenome community of MV27 with ENA study accession number: PRJEB31790 and ENA sample accession number: SAMEA5537508 for biotransformation. The drug concentrations were measured over 9 timepoints collected between 0 and 24 hours of incubation by liquid-chromatography-coupled mass spectrometry (LC–MS). Set-up: dose 2 uM, timepoint 0, 1, 2, 4, 6, 8, 12, 18, 24 hours.

A short description of data set [11]: The drug is tested on the gut metagenome community of MV17 with ENA study accession number: PRJEB31790 and ENA sample accession number: SAMEA5537498 for biotransformation. The drug concentrations were measured over 9 timepoints collected between 0 and 24 hours of incubation by liquid-chromatography-coupled mass spectrometry (LC–MS). Also noted: dose 2 uM, timepoint 0, 1, 2, 4, 6, 8, 12, 18, 24 hours.

A short description of data set [12]: The drug is tested on the gut metagenome community of MV01 with ENA study accession number: PRJEB31790 and ENA sample accession number: SAMEA5537482 for biotransformation. The drug concentrations were measured over 9 timepoints collected between 0 and 24 hours of incubation by liquid-chromatography-coupled mass spectrometry (LC–MS). Also noted: dose 2 uM, timepoint 0, 1, 2, 4, 6, 8, 12, 18, 24 hours.

Data set [13] in a line: The drug is tested on the gut metagenome community of MV18 with ENA study accession number: PRJEB31790 and ENA sample accession number: SAMEA5537499 for biotransformation. The drug concentrations were measured over 9 timepoints collected between 0 and 24 hours of incubation by liquid-chromatography-coupled mass spectrometry (LC–MS). Also noted: dose 2 uM, timepoint 0, 1, 2, 4, 6, 8, 12, 18, 24 hours.

As to `C#C[C@]1(O)CC[C@H]2[C@@H]3CCC4=CC(=O)CC[C@@H]4[C@H]3CC[C@@]21CC` [LEVONORGESTREL], the “Bacterial Biotransformation” value in data set [1], in data set [2] and in data set [3] was “Compound NOT metabolized” throughout.

On to `N#Cc1ccc2c(c1)N(CCCN1CCC(O)CC1)c1ccccc1S2` [PERICIAZINE], for which the “Bacterial Biotransformation” value in [1], in data set [2] and in data set [3] was “Compound NOT metabolized” in each case.

For the compound `CC(=O)OCC(CCn1cnc2cnc(N)nc21)COC(C)=O` [FAMCICLOVIR], the “Bacterial Biotransformation” value in [4], in [5], in data set [6], in [7], in data set [8] and in [9] was “Compound metabolized” in each case. The “Bacterial Biotransformation” value in [10], in [11], in data set [2], in [3], in [12] and in data set [13] was “Compound metabolized” throughout.

As to `COc1ccc([C@@H]2Sc3ccccc3N(CCN(C)C)C(=O)[C@@H]2OC(C)=O)cc1` [DILTIAZEM], the “Bacterial Biotransformation” value in data set [4], in [5], in [6], in data set [7], in [8] and in data set [9] was “Compound NOT metabolized” throughout. For the same compound, the “Bacterial Biotransformation” value in data set [10], in [11], in data set [1], in [2], in [3] and in [12] was “Compound NOT metabolized” in each case. In [13], the “Bacterial Biotransformation” value is given as “Compound NOT metabolized”.

Consider `C#C[C@]1(OC(C)=O)CC[C@H]2[C@@H]3CCC4=CC(=O)CC[C@@H]4[C@H]3CC[C@@]21C` [NORETHINDRONE ACETATE], for which the “Bacterial Biotransformation” value in [4], in [5], in data set [6], in data set [7], in data set [8] and in [9] was “Compound metabolized” in each case. The “Bacterial Biotransformation” value in [10] is “Compound metabolized”; in data set [11], “Compound metabolized”; in [1], “Compound NOT metabolized”; in [2], “Compound NOT metabolized”; in [3] it was “Compound NOT metabolized”; in [12], “Compound metabolized”. For the same compound, the “Bacterial Biotransformation” value in [13] is given as “Compound metabolized”.
